{"source": "paper PMC9780825", "about": "“Combining mKate2-Kv1.3 Channel and Atto488-Hongotoxin for the Studies of Peptide Pore Blockers on Living Eukaryotic Cells” (Toxins, 2022)", "key": {"[1]": {"test_system": "Kv1.3-K (human Kv1.3 C-terminally tagged with mKate2)", "experiment": "Confocal imaging of A-HgTx binding and displacement, Kv1.3-K in HEK293 cells", "experimental": "(§1) Figure 4 Confocal imaging of A-HgTx interactions (green) with mKate2-tagged Kv1.3 channels (red) transiently expressed in HEK293 cells. (A–D) Binding (A,B) of A-HgTx (2 nM) to Kv1.3-K and its displacement (C,D) by HgTx1 (40 nM). (E–H) Binding (E,F) of A-HgTx (2 nM) to K-Kv1.3 and its displacement (G,H) by HgTx1 (40 nM). (I–L) Binding (I,J) of A-HgTx (2 nM) to K-ΔKv1.3 and its displacement (K,L) by HgTx1 (40 nM). (M,N) Control measurement of the binding of A-HgTx (2 nM) to intact (no transfection) HEK293 cells. (O,P) Control measurement of the background signal in the wavelength range corresponding to the A-HgTx emission (O) from HEK293 cells expressing K-ΔKv1.3 (without addition of A-HgTx). The scale bar is equal to 20 μm. (A,E,I,M,C,G,K,O) Distribution of A-HgTx. (B,F,J,N,D,H,L,P) Distribution of mKate2-tagged Kv1.3 channels. […]\n(§2) Fluorescence of mKate2-fused hKv1.3 was excited at the 561 nm wavelength and recorded in the 650–700 nm range. Fluorescence of A-HgTx was excited at the 488 nm wavelength and recorded in the 495–535 nm range. Distributions of A-HgTx and mKate2 fluorescence in cells were imaged using sequential scanning to avoid interference of intrinsic cellular fluorescence excited at the 488 nm with the mKate2 fluorescence."}, "[2]": {"molecular_target": "T1, K-ΔKv1.3 (N-terminally truncated human Kv1.3 tagged with mKate2) (Homo sapiens, UniProt P22001)", "T1 sequence (P22001 53-575 limits assumed, stated change not applied)": "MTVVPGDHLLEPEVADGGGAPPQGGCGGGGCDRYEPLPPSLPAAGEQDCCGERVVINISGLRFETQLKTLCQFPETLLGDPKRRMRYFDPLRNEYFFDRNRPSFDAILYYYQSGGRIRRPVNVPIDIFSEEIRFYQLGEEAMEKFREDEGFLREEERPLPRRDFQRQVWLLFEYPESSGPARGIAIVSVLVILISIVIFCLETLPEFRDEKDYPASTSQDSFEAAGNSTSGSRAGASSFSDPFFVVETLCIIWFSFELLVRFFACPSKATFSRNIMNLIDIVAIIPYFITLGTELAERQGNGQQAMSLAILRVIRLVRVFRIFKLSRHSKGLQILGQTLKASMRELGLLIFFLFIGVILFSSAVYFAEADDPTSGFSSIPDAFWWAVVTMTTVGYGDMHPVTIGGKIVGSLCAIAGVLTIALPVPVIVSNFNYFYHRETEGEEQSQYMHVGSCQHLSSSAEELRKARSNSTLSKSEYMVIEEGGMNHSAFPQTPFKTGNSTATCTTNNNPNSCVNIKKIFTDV", "experiment": "Confocal imaging of A-HgTx binding and displacement, K-ΔKv1.3 in HEK293 cells", "parameters": "expressed in transfected cells; host or cells: HEK293 (transient transfection with pmKate2-KCNA3-del)", "experimental": "(§3) Figure 4 Confocal imaging of A-HgTx interactions (green) with mKate2-tagged Kv1.3 channels (red) transiently expressed in HEK293 cells. (A–D) Binding (A,B) of A-HgTx (2 nM) to Kv1.3-K and its displacement (C,D) by HgTx1 (40 nM). (E–H) Binding (E,F) of A-HgTx (2 nM) to K-Kv1.3 and its displacement (G,H) by HgTx1 (40 nM). (I–L) Binding (I,J) of A-HgTx (2 nM) to K-ΔKv1.3 and its displacement (K,L) by HgTx1 (40 nM). (M,N) Control measurement of the binding of A-HgTx (2 nM) to intact (no transfection) HEK293 cells. (O,P) Control measurement of the background signal in the wavelength range corresponding to the A-HgTx emission (O) from HEK293 cells expressing K-ΔKv1.3 (without addition of A-HgTx). The scale bar is equal to 20 μm. (A,E,I,M,C,G,K,O) Distribution of A-HgTx. (B,F,J,N,D,H,L,P) Distribution of mKate2-tagged Kv1.3 channels.\n(§4) KCNA3 gene encoding human Kv1.3 channel (hKv1.3, Accession number NP_002223.3) was a generous gift from Dr. A. Vassilevski. […]\nas §2"}, "[3]": {"molecular_target": "T2, K-Kv1.3 (human Kv1.3 N-terminally tagged with mKate2) (Homo sapiens, UniProt P22001)", "T2 construct": "membrane expression of the full-length human Kv1.3 was poor in X. oocytes, deletion of N-terminal M1-D52 residues boosted; expressed in transfected cells; host or cells: HEK293 (transient transfection with pmKate2-KCNA3)", "T2 sequence (P22001 whole entry, the tested form may be a part)": "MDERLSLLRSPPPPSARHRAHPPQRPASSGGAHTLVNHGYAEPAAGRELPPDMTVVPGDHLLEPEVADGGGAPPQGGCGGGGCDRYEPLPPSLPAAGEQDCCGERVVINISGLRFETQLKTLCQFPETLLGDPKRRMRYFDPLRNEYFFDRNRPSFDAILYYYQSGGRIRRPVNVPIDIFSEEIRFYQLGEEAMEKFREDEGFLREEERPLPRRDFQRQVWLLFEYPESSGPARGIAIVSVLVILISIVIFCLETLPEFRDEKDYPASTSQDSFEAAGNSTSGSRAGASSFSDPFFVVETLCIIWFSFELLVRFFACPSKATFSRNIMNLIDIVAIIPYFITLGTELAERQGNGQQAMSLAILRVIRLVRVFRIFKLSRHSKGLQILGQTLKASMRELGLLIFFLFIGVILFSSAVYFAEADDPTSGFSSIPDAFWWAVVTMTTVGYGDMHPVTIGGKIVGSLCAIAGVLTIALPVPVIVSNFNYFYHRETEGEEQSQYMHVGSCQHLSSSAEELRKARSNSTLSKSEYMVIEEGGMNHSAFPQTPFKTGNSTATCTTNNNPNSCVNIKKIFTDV", "experiment": "Confocal imaging of A-HgTx binding and displacement, K-Kv1.3 in HEK293 cells", "experimental": "as §3, §4, §2"}, "[4]": {"molecular_target": "T1, K-ΔKv1.3 (N-terminally truncated human Kv1.3 tagged with mKate2)", "experiment": "Fluorescent competitive binding assay (FCBA), displacement of A-HgTx from K-ΔKv1.3", "parameters": "expressed in transfected cells; host or cells: HEK293 (transient transfection with pmKate2-KCNA3-del)", "conditions": "living HEK293 cells; 2 nM A-HgTx; result in words", "description": "To quantitatively characterize formation of complexes between A-HgTx and K-ΔKv1.3 on cell membranes, the confocal images of A-HgTx bound at the membrane of the K-ΔKv1.3 presenting cells were subjected to the treatment procedure as follows. Regions of interest (ROIs) corresponding to the plasma membranes stained with K-ΔKv1.3 were selected. Using a set of these ROIs and a threshold procedure (to null a background signal from pixels without K-ΔKv1.3 signal), the binary (0;1) mask that describes membranous localization of K-ΔKv1.3 was created. The images of K-ΔKv1.3 and A-HgTx distribution were multiplied by the corresponding mask. Next, average intensities of fluorescence of K-ΔKv1.3 (Ici) and A-HgTx (Ili) were calculated for each ROI (i.e., for each i-cell), and a ratio Ri was calculated as follows. Ri = (Ili − Ilb)/(Ici − Icb) (1) where Ilb and Icb are intensities of background signals in the fluorescent images of A-HgTx and Kv1.3 channels, respectively. Calculating Ri (i.e., normalizing A-HgTx intensity to that of K-ΔKv1.3), a correction was introduced for variations in a level of K-ΔKv1.3 expression on the membrane of particular cells. Ri values of 15–20 cells were averaged to obtain the Rav value, and a standard deviation was calculated.\nConcentration of A-HgTx was 2 nM. Concentration of pore blockers C varied as indicated in the graph.\nWhen Kd of A-HgTx and IC50 for the studied compound are known, the apparent dissociation constant Kap of complexes between the compound and channel can be calculated using the Cheng-Prusoff equation [50]:Kap = IC50/(1 + L/Kd)(4) where L is the concentration of A-HgTx in the competitive binding experiment.\nIn A-HgTx binding experiments, cells were incubated with A-HgTx (0.15–4 nM) for 30 min (37 °C, 5% CO2) in the complete medium. In competitive binding experiments, cells were incubated with A-HgTx (2 nM) and selected pore blocker at variable concentrations (0.5–100 nM for recombinant peptides and 1–20 mM for TEA) for 30 min (37 °C, 5% CO2) in the complete medium.\nExperiments with HEK293 cells were performed with a laser scanning confocal microscope Leica-SP2 (Leica Microsystems GmbH, Wetzlar, Germany). The water-immersion 63×/1.2 NA HCX PL APO objective was used.\nEach experimental point in the curves describing interaction A-HgTx with mKate2-tagged Kv1.3 channels is an average over 15–25 treated images of cells. […]"}, "[5]": {"test_system": "mKate2-tagged Kv1.3 channels", "experiment": "A-HgTx wash-off and effect on channel distribution, mKate2-tagged Kv1.3 in HEK293 cells", "assay_type": "binding, human", "experimental": "as §3\nIn A-HgTx binding experiments, cells were incubated with A-HgTx (0.15–4 nM) for 30 min (37 °C, 5% CO2) in the complete medium. […]\nas §2"}, "[6]": {"test_system": "intact HEK293 cells that do not express mKate2-tagged Kv1.3", "experiment": "Control: A-HgTx binding to intact HEK293 cells", "conditions": "2 nM A-HgTx; no transfection; confocal imaging", "experimental": "as §1, §2"}, "[7]": {"molecular_target": "T1, K-ΔKv1.3 (N-terminally truncated human Kv1.3 tagged with mKate2)", "experiment": "Confocal imaging of A-HgTx binding and displacement, K-ΔKv1.3 in Neuro-2A cells", "parameters": "expressed in transfected cells; host or cells: HEK293 (transient transfection with pmKate2-KCNA3-del)", "conditions": "2 nM A-HgTx", "experimental": "Mouse Neuro-2A neuroblastoma cells were purchased from the Russian collection of cell cultures (Institute of Cytology, Saint Petersburg, Russia). Cells were cultured in DMEM (Paneco, Russia) supplemented with 10% fetal bovine serum (PAA Laboratories, Austria) and penicillin–streptomycin 100 U/mL. Cells were subcultured twice a week. Cells were plated at a density of 3×10^4 cells per well on cover glasses coated with poly-D-lysine and 24 h latter subjected to the transfection with plasmid pmKate2-KCNA3-del as described above.\nFigure S5. Confocal imaging of A-HgTx interactions with K-ΔKv1.3channels transiently expressed in Neuro-2A cells. (A, B) Distri-\n(20 nM) from the complexes with K-ΔKv1.3 at the membrane of cells. Scale bar is 20 µm. Green and red colors – fluorescence of A-\nHgTx and K-ΔKv1.3, respectively.\nFigure S6. Concentration dependence of A-HgTx binding to K-Kv1.3 on a cell membrane that was measured as the dependence of\nRav on the concentration L of A-HgTx added to HEK293 cells transiently transfected with K-Kv1.3.\n(also on this page, place not known: Neuro -2A K -ΔKv1.3. A -HgTx K -ΔKv1.3 0.0 0.5 1.0 1.5 2.0 0.0 0.5 1.0 1.5 L, nM Rav) […]"}, "[8]": {"molecular_target": "T1, K-ΔKv1.3 (N-terminally truncated human Kv1.3 tagged with mKate2)", "experiment": "Whole-cell patch-clamp, K-ΔKv1.3 expressed in Neuro-2A cells", "assay_type": "cell-based", "parameters": "expressed in transfected cells", "conditions": "N2a, +50 mV, 20–25 °C, pH 7.4, mean ± SEM", "protocol": "The K-ΔKv1.3 channel and A-HgTx were characterized by a whole-cell patch-clamp technique. Taking into account that “the kinetic properties of the homomeric Kv channels are largely consistent across host cell lines” [42], we studied K-ΔKv1.3 presented at the membrane of mouse Neuro-2A neuroblastoma cells, which are routinely used in our electrophysiological experiments.\nThe ion currents were analyzed in the whole-cell configuration by depolarizing steps from −70 to 70 mV in 20 mV increments from a holding potential of −40 mV.\nTest pulses having duration of 200 ms were applied stepwise with an interval of 20 s with a step of 20 mV from −70 to +70 mV then returning to a holding potential. […] Data were averaged (mean ± SEM) over ten (E) and twelve (F) cells.\n(A,B) Representative series of currents before (A) and after addition of 2 nM A-HgTx (B). […]\nK-ΔKv1.3-channel ion currents were recorded by the patch-clamp technique using an EPC-10 amplifier (HEKA Elektronik, Germany) in a standard whole-cell configuration. […]\nBriefly, in 24–48 h after transfection, cover glasses with attached Neuro2a cells were placed in a chamber with an extracellular solution (mM): 140 NaCl, 2.8 KCl, 2 MgCl2, 2 CaCl2, 10 HEPES and 10 glucose (pH 7.4) and perfused continuously. Selection of cells for the measurements was guided by membrane fluorescence of K-ΔKv1.3. […]"}, "[9]": {"conditions": "HgTx1 40 nM vs A-HgTx 2 nM, HEK293 cells"}, "[10]": {"conditions": "2 nM A-HgTx, living HEK293 cells"}}, "note": "“Also recorded” adds a separate entry of the source. Residues, ends and D or L forms follow the SMILES beside them.", "data": [{"smiles": "CC[C@H](C)[C@@H]1NC(=O)CNC(=O)[C@H](Cc2ccccc2)NC(=O)[C@H](CCC(N)=O)NC(=O)[C@H](C)NC(=O)[C@H](CCCCN)NC(=O)[C@@H]2CSSC[C@@H](C(=O)N[C@@H](Cc3ccc(O)cc3)C(=O)N3CCC[C@H]3C(=O)N[C@@H](Cc3c[nH]cn3)C(=O)O)NC(=O)[C@H](CCCCN)NC(=O)[C@@H]3CSSC[C@H](NC(=O)[C@H](CCC(N)=O)NC(=O)[C@H](CCCCN)NC(=O)[C@@H]4CCCN4C(=O)[C@H](CO)NC(=O)[C@H]([C@@H](C)O)NC(=O)[C@@H](NC(=O)[C@H](CCCCN)NC(=O)[C@@H](NC(=O)[C@H](CC(=O)O)NC(=O)[C@@H](NC(=O)[C@@H](NC(=O)[C@@H](N)[C@@H](C)O)C(C)C)[C@@H](C)CC)C(C)C)CSSC[C@H](NC(=O)[C@H](CCCCN)NC(=O)[C@H](C)NC(=O)CNC(=O)[C@H](C)NC(=O)[C@H](CCCNC(=N)N)NC1=O)C(=O)N[C@@H](CCSC)C(=O)N[C@@H](CC(N)=O)C(=O)NCC(=O)N[C@@H](CCCCN)C(=O)N3)C(=O)N[C@@H](CC(C)C)C(=O)N1CCC[C@H]1C(=O)N1CCC[C@H]1C(=O)N2", "note": "[HgTx1, hongotoxin 1, reference compound] (HELM PEPTIDE1{T.V.I.D.V.K.C.T.S.P.K.Q.C.L.P.P.C.K.A.Q.F.G.I.R.A.G.A.K.C.M.N.G.K.C.K.C.Y.P.H}$PEPTIDE1,PEPTIDE1,7:R3-29:R3|PEPTIDE1,PEPTIDE1,13:R3-34:R3|PEPTIDE1,PEPTIDE1,17:R3-36:R3$$$V2.0; N-terminus and C-terminus assumed)", "values": [{"measurement": "displacement of A-HgTx from Kv1.3-K", "setting": "[1]; [9]", "result": "displaces bound A-HgTx"}, {"measurement": "displacement of A-HgTx from K-ΔKv1.3", "setting": "[2]; [9]", "result": "displaces bound A-HgTx"}, {"measurement": "displacement of A-HgTx from K-Kv1.3", "setting": "[3]; [9]", "result": "displaces bound A-HgTx"}, {"measurement": "displacement of A-HgTx from the complexes with K-ΔKv1.3", "setting": "[4]", "result": "displaced from the complexes with K-ΔKv1.3"}]}, {"smiles": "CC[C@H](C)[C@@H]1NC(=O)CNC(=O)[C@H](Cc2ccccc2)NC(=O)[C@H](CCC(N)=O)NC(=O)[C@H](C)NC(=O)[C@H](CCCCN)NC(=O)[C@@H]2CSSC[C@@H](C(=O)N[C@@H](Cc3ccc(O)cc3)C(=O)N3CCC[C@H]3C(=O)N[C@@H](Cc3c[nH]cn3)C(=O)O)NC(=O)[C@H](CCCCN)NC(=O)[C@@H]3CSSC[C@H](NC(=O)[C@H](CCC(N)=O)NC(=O)[C@H](CCCCN)NC(=O)[C@@H]4CCCN4C(=O)[C@H](CO)NC(=O)[C@H]([C@@H](C)O)NC(=O)[C@@H](NC(=O)[C@H](CCCCN)NC(=O)[C@@H](NC(=O)[C@H](CC(=O)O)NC(=O)[C@@H](NC(=O)[C@@H](NC(=O)[C@@H](NC(=O)CCCN(C)C(=O)c4ccccc4-c4c5ccc(=N)c(S(=O)(=O)O)c-5oc5c(S(=O)(=O)O)c(N)ccc45)[C@@H](C)O)C(C)C)[C@@H](C)CC)C(C)C)CSSC[C@H](NC(=O)[C@H](CCCCN)NC(=O)[C@H](C)NC(=O)CNC(=O)[C@H](C)NC(=O)[C@H](CCCNC(=N)N)NC1=O)C(=O)N[C@@H](CCSC)C(=O)N[C@@H](CC(N)=O)C(=O)NCC(=O)N[C@@H](CCCCN)C(=O)N3)C(=O)N[C@@H](CC(C)C)C(=O)N1CCC[C@H]1C(=O)N1CCC[C@H]1C(=O)N2", "note": "[A-HgTx] (HELM PEPTIDE1{[N=c1ccc2c(-c3ccccc3C(=O)[*:2])c3ccc(N)c(S(=O)(=O)O)c3oc-2c1S(=O)(=O)O].[CN(CCCC(=O)[*:2])[*:1]].T.V.I.D.V.K.C.T.S.P.K.Q.C.L.P.P.C.K.A.Q.F.G.I.R.A.G.A.K.C.M.N.G.K.C.K.C.Y.P.H}$PEPTIDE1,PEPTIDE1,9:R3-31:R3|PEPTIDE1,PEPTIDE1,15:R3-36:R3|PEPTIDE1,PEPTIDE1,19:R3-38:R3$$$V2.0; C-terminus assumed)", "values": [{"measurement": "binding of A-HgTx to Kv1.3-K", "setting": "[1]; [10]", "result": "bind A-HgTx"}, {"measurement": "binding of A-HgTx to K-ΔKv1.3", "setting": "[2]; [10]", "result": "bind A-HgTx"}, {"measurement": "binding of A-HgTx to K-Kv1.3", "setting": "[3]; [10]", "result": "bind A-HgTx"}, {"measurement": "effect of A-HgTx binding on membrane distribution of the Kv1.3 channels", "setting": "[5]; nano-molar A-HgTx, HEK293 cells, confocal imaging", "result": "does not lead to noticeable changes"}, {"measurement": "dissociation of A-HgTx from the cell membrane on washing", "setting": "[5]; washing HEK293 cells with fresh medium, data not shown", "result": "rapid (in a few minutes) dissociation"}, {"measurement": "binding of A-HgTx at the membrane of intact HEK293 cells (non-specific binding)", "setting": "[6]", "result": "negligible non-specific binding; also recorded: No binding of A-HgTx was observed"}, {"measurement": "binding of A-HgTx at the membrane of K-ΔKv1.3 expressing Neuro-2A cells", "setting": "[7]", "result": "bound at the membrane of cells expressing K-ΔKv1.3"}, {"measurement": "inhibition at 0.002 µM", "setting": "[8]; 2 nM A-HgTx, n = 10, read-out: inhibition of K-ΔKv1.3 currents by A-HgTx", "result": "42 ± 6", "unit": "%"}, {"measurement": "inhibition at 0.01 µM", "setting": "[8]; 10 nM A-HgTx, n = 3, read-out: inhibition of K-ΔKv1.3 currents by A-HgTx", "result": "83 ± 3", "unit": "%"}]}]}
